# Experimental data published in patent US10668039B2, “Methods for treatment of adenoid cystic carcinoma” (THE CHILDREN'S MEDICAL CENTER CORPORATION, priority 2016, dated 2020).
# How the values were obtained:
# ACCx11 = test: ACC xenotransplantation trial, ACCx11; format: in vivo, nude mice; settings: for tumor growth inhibition ACCx11: oral 0.2 mL flat dose: ATRA 4 mg/mL, isotretinoin 30 mg/mL, fenretinide 40 mg/mL
# Method: (§1) Xenograft experiments: To generate ACC xenografts, 1×10^6 viable ACC cells were injected into the flank of female nude (Foxn1nu) mice for in vivo drug testing of ACCx6, ACCx9, and ACCx11 lines. Once tumors were visible, the mice were randomized to receive vehicle control or drug until reaching a […] tumor volume of 1,000 mm3. The mice in each group were treated with an oral flat dose five times weekly (po qdx5) for four cycles (two days off between cycles). The exact dosing was determined based on an initial MTD tolerability study and published literature reports. Five mice per group were treated for ACCx6 and ACCx9, and four mice per group were treated for ACCx11 (five mice in the control ACCx11 group), and the tumor volumes were quantified. Mice were treated with a flat dose of 0.2 mL orally of: 30 mg/mL isotretinoin; 40 mg/mL fenretinide; 4 mg/mL ATRA for ACCx6 and ACCx11 or 3 mg/mL ATRA for ACCx9. Mouse procedures used in this study were approved by the IACUC at South Texas Accelerated Research Therapeutics (San Antonio, Tex.).
# (§2) Primagraft experiments: For in vivo drug testing, ACC tumor fragments from host animals were implanted subcutaneously into the flank of nude mice (CRL: ATH/NU). Once tumors reached 125-250 mm3, mice were randomized to receive vehicle or drug diluted in 10:90 DMSO:10% hydroxypropyl-beta-cyclodextrin orally until controls reached a tumor volume endpoint of 1-2 cm3 (4-9 mice per group: x5M1 and x6, 4 treated vs. 9 vehicle controls; x9, 4 treated vs. 5 vehicle controls; x11, 5 treated vs. 8 vehicle controls). Mice were treated with ATRA (ACC x6 and x11: 4 mg/mL, 0.2 mL flat dose; ACC×9: 3 mg/mL, 0.2 mL flat dose) or isotretinoin (30 mg/mL, 0.2 mL flat dose). Tumor growth was monitored and mice weighed twice weekly and studies ended when final group reached tumor volume endpoint. No statistical methods were employed to determine the sample size, and no blinding of investigators was performed. After long-term tumor growth inhibition studies were completed, the ATRA treated mice stopped receiving treatment and were maintained longer as indicated to monitor tumor maintenance after treatment cessation. For long-term tumor growth inhibition studies, ACC x6, x9, and x11 models were used and primagrafts collected at the completion of the study. Short-term kinetics studies were also undertaken with ACC x9 and x5M1 primagrafts involving 3 day ATRA treatments. All animal procedures used in this study were approved by the IACUC at START, San Antonio, Tex.
# c-myb:GFP = c-myb:GFP zebrafish blastomere embryo culture chemical screen; format: cell-based; settings: approximately 30 μM, 2 days
# Method: The inventors have developed an embryo culture system in which embryos bearing a c-myb:GFP transgenic reporter were dissociated during sphere stage at 4 hours post fertilization (hpf), and cultured in gelatin-coated 384 well plates with chemicals for 2 days until imaging for fluorescent reporter activity (FIG. 1). This fluorescent transgene is expressed in a similar pattern to the endogenous gene. […] This transgene responds to inducers of hematopoiesis, as myb is a marker of hematopoietic stem cells (HSCs).
# The image analysis software (ImageJ and MatLab) was used to identify hits that downregulate c-myb:GFP zebrafish embryo cultures by a z-score less than […] and more than 70% downregulation. Hits were assessed by eye and scored for morphology. Toxic compounds that caused poor embryoid body (EB) formation were assessed a 4.
# Zebrafish cell culture: Zebrafish embryo cultures were adapted from Xu (2013). Dissociated blastomere cells were grown in medium composed of 85% LDF medium, 5% heat inactivated FBS, and 10% zebrafish day 1 embryo extract. LDF medium contains 50% Leibowitz's L-15 (Invitrogen), 20% DMEM (Invitrogen), and 30% DMEM/F-12 (Invitrogen), supplemented with 0.018% sodium bicarbonate, 15 mM HEPES (Invitrogen), 1% L-Glutamine (Invitrogen), 10 nM sodium selenite (Sigma-Aldrich), 1% N2 (Invitrogen), 2% B27 (Invitrogen), 1% Penicillin-Streptomycin (Invitrogen), and 0.2% Primocin (InvivoGen).
# Screening procedures: Two 384-well plates were coated with 0.1% gelatin for each chemical library plate. Males of the c-myb:GFP transgenic line were set up overnight with casper females and kept separated until morning when they were mixed for mating. Embryos were washed twice with E3 embryo water and treated with pronase to remove chorions. Dechorionated embryos were washed with E3 embryo water and collected into tubes containing media. Embryos were disassociated by shaking ˜10 times and were filtered through a 40 μm nylon mesh filter. Resulting single cells were diluted with medium and aliquoted 30 μl per well into the 384-well plates at approximately 2 embryo equivalents per well. Chemicals were dispensed immediately afterwards with an Agilent Bravo robot. Chemicals from the libraries were diluted 300 times with LDF medium and were aliquoted 10 μl per well for a final concentration of approximately 33 μM. […] Cells were cultured in a 28° C. incubator with 5% CO2. Two days later, cells were imaged by a Yokogawa Cell Voyager 7000 imager. Images were analyzed by ImageJ and MatLab and confirmed by eye. […]
# Culture of dissociated blastomere cells: Stage-matched zebrafish blastomeres were dissociated at 4 hpf and grown in medium composed of 85% LDF medium, 5% FBS, and 10% embryo extract. LDF medium contains 50% Leibowitz's L-15 (Invitrogen), 20% DMEM (Invitrogen), and 30% DMEM/F-12 (Invitrogen), supplemented with 2% B27 (Gibco), 15 mM HEPES (Gibco), 1% L-glutamine (Gibco), 1% N2 (Gibco), 10 nM sodium selenite (Sigma), 100 ug/mL piperacillin (Sigma), 10 ug/mL ciprofloxacin (GenHunter), and 0.018% sodium bicarbonate (Gibco). Embryo extract was made by homogenizing 24 hpf wildtype AB embryos in HBSS (Gibco).
# [1] = test system: ACC patient derived xenografts; test: ACC xenotransplantation trials, average across ACCx6, ACCx9 and ACCx11; format: in vivo, nude mice; design: concentration or dose not given beside the values; settings: average of ACCx6, ACCx9, ACCx11
# Method: as §1, §2
# [2] = Table 2, c-myb:GFP embryo cultures, average across two plates
# [3] = Table 3, GFP signal in blastomere embryo culture screen
SMILES,tumor growth inhibition ACCx11 (ACCx11),Z-Score (c-myb:GFP; [2]),Z-Score (c-myb:GFP; [3]),Average tumor growth inhibition across the three models [1],Average tumor growth inhibition across the three models ([1]; listed as fenretinide),"tumor growth inhibition after discontinuation of treatment, ACC x11 (ACCx11; after approximately 28 days of treatment)",Average tumor growth inhibition across the three models ([1]; listed as all-trans retinoic acid (ATRA)),Average tumor growth inhibition across the three models ([1]; listed as isotretinoin)
"CC1=C(/C=C/C(C)=C/C=C/C(C)=C/C(=O)Nc2ccc(O)cc2)C(C)(C)CCC1 [Fenretinide, retinoic acid p-hydroxyanilide]",41%,−1.582,−1.582,53%,53%,–,–,–
"CC(C=CC1=C(C)CCCC1(C)C)=CC=C/C(C)=C/C(=O)O [ATRA, (E)-3,7-dimethyl-9-(2,6,6-trimethyl-1-cyclo-hexen-1-yl)-2,4,6,8-nonatetraenoic acid]",105%,−5.729,−5.729,88%,–,sustained,88%,–
"CC1=C(/C=C/C(C)=C/C=C/C(C)=C\C(=O)O)C(C)(C)CCC1 [Isotretinoin, 13-cis-retinoic acid]",94%,−5.054,−5.054,86%,–,–,–,86%
